In paper PMC5175178, “Development of an in-vivo active reversible butyrylcholinesterase inhibitor” (Scientific Reports, 2016):
Where two headings read alike, the source gives them in different places.

Experiments:
[1] = tested on: mice; assay: Observation of acute cholinergic adverse effects; type: in vivo; conditions: even at 100 mg kg^−1
[2] = Human plasma stability
Method: (§1) The plasma metabolic stability and hepatic clearance were estimated by the substrate depletion method.
(§2) The incubation was performed in a 37 °C water bath for 2 h. An aliquot of the incubation mixture was transferred to acetonitrile at 0, 0.5, 1, 1.5 and 2 h, respectively. Samples were then mixed and centrifuged. Supernatants were used for HPLC-MS/MS analysis using selected reaction monitoring, and peak areas were recorded for each analyte. The HPLC conditions consisted of a binary LC pump with autosampler, a C18 column (2 × 20 mm), and gradient elution. The area of precursor compound remaining after each time points relative to the amount remaining at time zero, expressed as percent, is calculated. Subsequently, the half-life (t1/2) was estimated from the slope of the initial linear range of the logarithmic curve of the compound remaining (%) versus time, assuming first order kinetics.

[3] = tested on: HepG2 cells; assay: Cytotoxicity in HepG2 cells, MTS metabolic activity assay; conditions: 24 h
Method: (§3) After 24 h (a) or 48 h (b), the cell viability was evaluated using the MTS assay. The control group (DMSO) was considered as 100% cell viability. Data are means ±SD of at least three independent experiments, each carried out in triplicate (a) and quadruplicate (b).
HepG2 cells (1 ×10^4 cells/well) were treated for 24 h with the appropriate concentrations of the compounds of interest or the corresponding vehicle (control cells), in triplicates in 96-well plates. The metabolic activities were determined using the CellTiter 96 Aqueous One Solution Cell Proliferation Assay (Promega, WI/USA), according to the manufacturer instructions.

[4] = tested on: SH-SY5Y cells; assay: Cytotoxicity in SH-SY5Y cells, MTS cell viability assay; conditions: 48 h
Method: Prior to cell treatments, complete medium was replaced with reduced-serum medium (i.e., with 2% fetal bovine serum).
as §3
The cells were treated as described above, and cell viability was assessed after 48 h using the CellTiter 96 Aqueous One Solution Cell Proliferation Assay (Promega, Madison, WI, USA), according to the manufacturer instructions. […] The data are presented as percentages of the control (DMSO).

[5] = tested on: scopolamine-induced memory impairment in mice; assay: Passive avoidance task, scopolamine-induced memory impairment; type: in vivo, Albino Swiss (CD–1 Krf) mice
Method: The first behavioral test performed was the passive avoidance (PA) task, which allows the evaluation of the effects of a drug on fear-motivated contextual memory. […] In the passive avoidance task, better memory performance is determined according to a longer step-through latency in the retention trial (i.e., the testing phase) than in the acquisition trial (i.e., the conditioning phase). […] The mice had free access to food and water, and the ambient temperature and humidity of the room were kept constant throughout all of the tests. For the behavioral tasks, the mice were selected at random, and each group consisted of 8 to 10 mice dose^−1. The experiments were performed between 08:00 and 14:00. Immediately after these in-vivo assays, the animals were euthanized by cervical dislocation. […] All efforts were made to minimize the number of mice used and their suffering.
The effect of the test compounds on acquisition and retention in the passive avoidance task was conducted accordingly to a previously described method^30. For this purpose, the passive avoidance apparatus was used (Panlab Harvard Apparatus, Spain).
The testing phase was conducted 24 h after the acquisition phase. For the acquisition, each mouse was initially placed for 30 s in the light compartment (exploration period; guillotine gate closed). At the end of the exploration period the guillotine door between the light and the dark compartments was opened and the time elapsed before entering the black chamber was recorded. As soon as the mouse entered the dark compartment, the door automatically closed and an electrical shock (current intensity: 0.2 mA, duration: 2 s) was delivered through the grid floor.
For the retention trial (drug off), the mice were placed in the illuminated white compartment again, and the latency time between door opening and entry into the dark compartment was recorded for each mouse. […] Better memory performance was indicated by longer latency before entry into the black chamber in the test (retention) phase than in the conditioning (acquisition) phase.

[6] = in vitro; type: in vitro ADME; parameters: protein bound: dose or concentration left out as unconfirmed; conditions: for recovery at 4 h, 10 µM: human, pH 7.4, human plasma protein binding assay
Method: The experiment was accepted in accordance with Eurofins validation Standard Operating Procedure.
The equilibrium dialysis technique was used to separate the fraction of the bound to human plasma protein. The assay was performed in a 96-well format in a dialysis block constructed from Teflon to minimize the unspecific binding^25. Plasma from human was used as the default protein containing matrix. […] The dialysate compartment was loaded with the phosphate buffered saline (PBS, pH 7.4), and the sample side was loaded with equal volume of the spiked protein matrix. The dialysis plate was then sealed and incubated at 37 °C for 4 h. A control sample (n = 2) was prepared from the spiked protein matrix in the same manner as the assay sample (without dialysis). The control sample served as the basis for the recovery determination. After the incubation, samples were taken from each compartment, diluted with phosphate buffer followed by addition of acetonitrile and centrifugation. The supernatants were then used for HPLC-MS/MS analysis using selected reaction monitoring. The HPLC conditions consisted of a binary LC pump with autosampler, a C18 column (2 × 20 mm), and gradient elution.
Protein binding (%) = (Areap-Areab) / Areap ×100 (3),
Recovery (%) = (Areap-Areab) / Areac ×100 (4),
The recovery determination serves as an indicator of reliability of the calculated protein binding value. Low recovery would indicate that the test compound is lost during the course of the assay, most likely due to non-specific binding or degradation.

[7] = tested on: mice; assay: Rotarod test, motor coordination; conditions: for Time spent on the rotarod (s ±SEM) 6 rpm / Time spent on the rotarod (s ±SEM) 18 rpm / Time spent on the rotarod (s ±SEM) 24 rpm: 60 min
Method: The mice had free access to food and water, and the ambient temperature and humidity of the room were kept constant throughout all of the tests. For the behavioral tasks, the mice were selected at random, and each group consisted of 8 to 10 mice dose^−1. The experiments were performed between 08:00 and 14:00. Immediately after these in-vivo assays, the animals were euthanized by cervical dislocation. […] All efforts were made to minimize the number of mice used and their suffering.
Before the test, the mice were trained for three consecutive days on the rotarod apparatus (Rotarod apparatus, May Commat RR0711, Turkey; rod diameter, 2 cm) that was rotating at a fixed speed of 18 rotations per minute (rpm). In each training session, the mice were put on the rotating rod for 3 min, with an unlimited number of trials. The correct experimentation was performed 24 h after the last training session. […] Motor impairments were defined as the inability to remain on the rotarod apparatus for 1 min, and were expressed as the mean time spent on the rotarod^36.

[8] = target: T1, mAChE (Mus musculus, UniProt P21836); assay: In-vitro inhibitory activity against mAChE, method of Ellman; type: biochemical, murine
T1 construct: donated by Florian Nachon (IBS, Grenoble)
T1 sequence (P21836 32-614): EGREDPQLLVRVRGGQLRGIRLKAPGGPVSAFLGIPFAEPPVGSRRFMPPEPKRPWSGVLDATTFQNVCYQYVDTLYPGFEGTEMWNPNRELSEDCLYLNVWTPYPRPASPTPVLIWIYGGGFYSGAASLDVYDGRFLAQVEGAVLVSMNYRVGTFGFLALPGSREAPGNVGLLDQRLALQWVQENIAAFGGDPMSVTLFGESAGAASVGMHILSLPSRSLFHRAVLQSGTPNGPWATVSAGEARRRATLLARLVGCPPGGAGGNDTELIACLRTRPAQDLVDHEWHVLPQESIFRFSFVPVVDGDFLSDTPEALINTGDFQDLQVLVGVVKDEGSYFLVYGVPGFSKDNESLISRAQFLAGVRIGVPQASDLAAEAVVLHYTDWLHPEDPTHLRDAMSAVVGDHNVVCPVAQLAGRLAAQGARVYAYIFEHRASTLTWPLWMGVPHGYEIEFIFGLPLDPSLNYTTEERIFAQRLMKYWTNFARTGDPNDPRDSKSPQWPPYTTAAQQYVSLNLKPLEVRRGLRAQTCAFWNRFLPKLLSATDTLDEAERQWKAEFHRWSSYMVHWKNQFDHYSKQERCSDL
Method: The inhibitory potencies of the compounds against the ChEs were determined using the method of Ellman[32].
The enzyme solutions were prepared by dilution of the concentrated stocks in phosphate-buffered solution (0.1 M, pH 8.0). […] The reactions were started by addition of the substrate, at room temperature. The final content of the organic solvent (DMSO) was always 1%. […] To determine the blank value (b), phosphate-buffered solution replaced the enzyme solution. The initial velocity (v0) was calculated from the slope of the linear trend obtained, with each measurement carried out in triplicate. […] The compounds were added to each well at a final concentration of 10 μM. […] The initial velocities in the presence of the test compounds (vi) were calculated. The inhibitory potencies are expressed as the residual activities (RA = (vi – b) / (vo – b)). […] The IC50 values were obtained by plotting the residual enzyme activities against the applied inhibitor concentrations, with the experimental data fitted to Equation (1):
where X is the logarithm of the inhibitor concentration, and Y is the residual activity. For the fitting procedure, the Gnuplot software and an in-house python script were used.

[9] = in vitro; conditions: both, human, hepatocytes, pH 7.3
Method: as §1
(§4) Cryopreserved hepatocytes (mixed gender and pool of 10 or more) were thawed, washed, and resuspended in Krebs-Heinslet buffer (pH 7.3). […] The reaction was stopped by adding acetonitrile into the incubation mixture. Samples were then mixed, transferred completely to another 96-well plate, and centrifuged. Supernatants were used for HPLC-MS/MS analysis. As reference substances, four compounds were tested in each assay. […] In the HPLC-MS/MS analysis peak areas corresponding to the test compounds were recorded. Metabolic stability, expressed as percentage of the parent compound remaining, was calculated by comparing the peak area of the compound at the time point relative to that at time 0. The half-life (t1/2) was estimated from the slope of the initial linear range of the logarithmic curve of the compound remaining (%) versus time, assuming first order kinetics. The apparent intrinsic clearance (Clint in µL/min/million cells) was calculated from the half-life according to the following formula:

[10] = tested on: mice; assay: Locomotor activity test; conditions: 30 mg kg^–1 IP, 1 h before the assay
From the text: Eight-week-old male Albino Swiss (CD–1 Krf) mice weighing from 18 g to 22 g were used in the passive avoidance task, and the locomotor activity and rotarod tests, and C57BL/6 J mice of the same age were used in the MWM and the RAWM tasks. […] The mice had free access to food and water, and the ambient temperature and humidity of the room were kept constant throughout all of the tests. For the behavioral tasks, the mice were selected at random, and each group consisted of 8 to 10 mice dose^−1. The experiments were performed between 08:00 and 14:00. Immediately after these in-vivo assays, the animals were euthanized by cervical dislocation. […] All efforts were made to minimize the number of mice used and their suffering.
Data are means ±SEM. The vehicle and the test compound were administered intraperitoneally, 1 h before the assay. Statistical analysis of the data was performed using repeated measures analysis of variance (ANOVA), followed by Bonferroni multiple comparisons.
The mouse locomotor activity (i.e., number of light-beam crossings) was measured during the next 30 min of the test^36.

[11] = tested on: scopolamine-induced memory impairment in mice; assay: Two-day radial arm water maze task, scopolamine-induced memory impairment; type: in vivo, C57BL/6J mice
Method: In this task incorrect arm entries (i.e., errors) are counted. […] The mice had free access to food and water, and the ambient temperature and humidity of the room were kept constant throughout all of the tests. For the behavioral tasks, the mice were selected at random, and each group consisted of 8 to 10 mice dose^−1. The experiments were performed between 08:00 and 14:00. Immediately after these in-vivo assays, the animals were euthanized by cervical dislocation. […] All efforts were made to minimize the number of mice used and their suffering.
C57BL/6J mice were subjected to the radial arm water maze paradigm^34,35. The main part of the apparatus (Panlab Harvard Apparatus, Spain) consists of a 6-arm maze in a pool filled with water to approximately 10 cm from the top, to be high enough to cover the hidden platform by about 0.5 cm, but also low enough that the visible platform was not covered. The pool was regularly cleaned of any debris left by the mice. The temperature of the water was kept constant during testing (23 ±1 °C). The tester remained in the same position throughout the testing, thus providing an additional visual cue for the mice.
On day 1, 15 trials were run in five blocks of three. Each trial lasted up to 60 s. The start arm was varied for each trial, with the goal arm remaining constant for a given individual for both days^34,35. For the first 12 trials, the platform was alternately visible, then hidden, and then hidden for the last three trials. On day 2, the mice (without drug treatment on this day) were run in the same manner as on day 1, but the platform was hidden for all of the trials. As errors have been reported to be the most sensitive measure in this assay^34, the number of errors (i.e., incorrect arm entries made) was counted in a 60 s time-frame. Incorrect arm entries occurred when the mouse selected an arm that was not the goal arm. Entries into the goal arm were not counted as errors, even if the platform was not located. An entry was considered to occur when all four legs of the mice had entered the alley completely. […] If the platform was not located within 60 s, the mice were gently guided through the water by placing a hand behind the animal to direct its swimming direction toward the platform. […] After that, the mouse was gently removed from the platform and thoroughly dried using cellulose paper before placing it back into its home cage under a heat source (a heat lamp).
For the statistical analysis of the data obtained, to minimize the impact of individual trial variability, each mouse error for the finding of the platform for three consecutive trials were averaged, giving five data points (5 trial blocks): T1 (trials 1–3), T2 (trials 4–6), T3 (trials 7–9), T4 (trials 10–12) and T5 (trials 13–15), separately for each day of testing.

[12] = in vitro; conditions: human, plasma
Method: as §1, §2

[13] = tested on: cryopreserved human hepatocytes; assay: Metabolite identification in cryopreserved human hepatocytes, LC-HRMS; conditions: 2 h with human cryopreserved hepatocytes
Method: The plasma metabolic stability and hepatic clearance were estimated by the substrate depletion method. Qualitative aspect of metabolic degradation was performed by metabolite identification using LC-high resolution mass spectrometry (HRMS). […] Principal Phase I (oxidative) and Phase II (conjugative) metabolites have been detected and characterized following previously described preocedure^27. […] Samples were taken at time 0 and the end of the incubation (2 h), respectively. A control sample (no test compound added) was also prepared and incubated for the same period of time. After the reaction was stopped by addition of acetonitrile, the supernatants were subjected to HPLC-MS analysis. Separation of analytes was achieved using Acquity HSS T3 column (100 × 2.1 mm, 1.8 µ, Waters). The sample solutions-supernatants (5 µL) were injected and eluted at a flow rate of 0.5 mL min^–1, using a linear gradient of mobile phase A (0.1% formic acid in water) and mobile phase B (0.1% formic acid in MeCN). […] Retention times and the respective MS and MS/MS spectra of the species detected in the incubated sample and not in time-zero or blank sample were identified and recorded.

[14] = tested on: scopolamine-induced memory impairment in mice; assay: Morris water maze task, scopolamine-induced memory impairment
Method: In this task the time taken to reach the hidden platform (i.e., the escape latency time), the distance travelled, and the mean speed of swimming are recorded for each experimental group. […] For the behavioral tasks, the mice were selected at random, and each group consisted of 8 to 10 mice dose^−1. The experiments were performed between 08:00 and 14:00. Immediately after these in-vivo assays, the animals were euthanized by cervical dislocation. […] All efforts were made to minimize the number of mice used and their suffering.
The Morris water maze is a circular, plastic, grey-painted pool (diameter, 120 cm; height, 60 cm), filled with water (up to about 48 cm below the edge, to prevent an animal from jumping out) that was maintained at 23 ±1 °C. The pool was divided into four equal quadrants (compass locations: NE, NW, SE, SW) by a computerized video tracking system (SMART, ver. 3.0; Panlab, Spain). An escape platform (diameter, 11 cm; height, 47 cm) at a fixed location (the center of the NW quadrant; i.e., the target quadrant). The escape platform was made of transparent Plexiglas and was immersed 1 cm under the surface of water; this was invisible to the swimming mouse. The maze was lighted with the intensity of 45 lx.
During the spatial acquisition trial (six consecutive days), the mice were assigned to training sessions (four training sessions a day; 4 h apart) in which the mice were trained to escape from the water by reaching the hidden platform, the location of which could be identified using distal extra-maze cues (A4-sized sheets of black laminated paper with colored geometric symbols) attached to the room walls to provide navigation points^31. Visual cues had different colors and dimensions, and were kept constant during the whole experiment^31,32. The whole experiment was conducted by an experimenter who remained always stationary in a constant location, thus serving as an additional distal cue for the swimming mice. […] The time taken to reach the hidden platform (escape latency time), distance travelled to reach the platform, and mean speed were recorded in each experimental group and analyzed.
On the seventh day (24 h after the last training) the platform was removed from the pool and a probe trial was performed (without drug treatment). Each animal was released from a different start point and was allowed to swim for 60 s. […] Latency time to the first crossing of the former platform location (target zone), number of crossings of the target zone, time spent in the target NW quadrant, total distance, distance spent in NW quadrant, entries into the NW quadrant, and mean speed were measured^31.

[15] = tested on: cryopreserved human hepatocytes; assay: Metabolic stability in cryopreserved human hepatocytes; conditions: 1 µM
Method: as §1, §4

[16] = target: T2, Aβ1–42 aggregation (Homo sapiens, UniProt P05067); assay: Aβ1–42 aggregation inhibition, thioflavin-T fluorometric assay; type: biochemical
T2 construct: Recombinant human HFIP-pretreated Aβ1–42 peptide (Merck Millipore, Darmstadt, Germany); purchased Merck Millipore, Darmstadt, Germany
T2 sequence (P05067 672-713): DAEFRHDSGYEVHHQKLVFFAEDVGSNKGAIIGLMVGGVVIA
Method: Recombinant human HFIP-pretreated Aβ1–42 peptide (Merck Millipore, Darmstadt, Germany) was dissolved in DMSO to give 75 μM stock solution. […]. The ThT emission of the Aβ1–42 began to rise after 4 h, reached a plateau after 20 h, and remained almost unchanged for an additional 28 h of incubation. The fluorescence intensities at the plateau in the absence and presence of the test compound were averaged, and the average fluorescence of the corresponding wells at t= 0 h was subtracted. […]

[17] = human plasma, 10 µM, 37 °C, 4 h
[18] = probe trial day 7, scopolamine + 30 mg kg^–1

COCCN(CC1CCCN(Cc2ccccc2)C1)S(=O)(=O)c1ccc2ccccc2c1 (racemic) [compound 2, (±)-N-((1-benzylpiperidin-3-yl)methyl)-N-(2-methoxyethyl)naphthalene-2-sulfonamide]
acute cholinergic adverse effects [1]: no acute cholinergic adverse effects
half-life in human plasma ([2]; discussion): > 2 h
Half-Life t1/2 (min) 1st ([2]; human plasma, 1 µM, 37 °C): 223.1 min
Half-Life t1/2 (min) 2nd ([2]; human plasma, 1 µM, 37 °C): 206.7 min
Half-Life t1/2 (min) Mean ([2]; human plasma, 1 µM, 37 °C): >120 min
LD50 HepG2 cells [3]: 58.67 µM
LD50 SH-SY5Y cells [4]: 31.40 µM
step-through latency, retention trial ([5]; 10 mg kg^−1 IP before scopolamine 1 mg kg^−1): 70 s
step-through latency, retention trial ([5]; 20 mg kg^−1 IP before scopolamine 1 mg kg^−1): 58 s
step-through latency, retention trial ([5]; 30 mg kg^−1 IP before scopolamine 1 mg kg^−1): 102 s
protein bound ([6]; human blood plasma, equilibrium dialysis): 96%
Protein Bound (%) 1st [6, 17]: 96.0%
Protein Bound (%) 2nd [6, 17]: 95.3%
Protein Bound (%) Mean [6, 17]: 96%
recovery at 4 h, 10 µM ([6]; read-out: Recovery (%) 1st): 101%
recovery at 4 h, 10 µM ([6]; read-out: Recovery (%) 2nd): 99%
recovery at 4 h, 10 µM ([6]; read-out: Recovery (%) Mean): 100%
Time spent on the rotarod (s ±SEM) 6 rpm ([7]; 30 mg kg^-1 IP): 60.0 s
Time spent on the rotarod (s ±SEM) 18 rpm ([7]; 30 mg kg^-1 IP): 60.0 s
Time spent on the rotarod (s ±SEM) 24 rpm ([7]; 30 mg kg^-1 IP): 60 s
Time spent on the rotarod (s ±SEM) 6 rpm ([7]; 100 mg kg^-1 IP): 60.0 s
Time spent on the rotarod (s ±SEM) 18 rpm ([7]; 100 mg kg^-1 IP): 53.3 ± 6.8 s
Time spent on the rotarod (s ±SEM) 24 rpm ([7]; 100 mg kg^-1 IP): 52.3 ± 6.8 s
impact on motor coordination ([7]; even at 100 mg kg^−1): did not induce motor deficits
%RA at 10 µM ±SEM mAChE ([8]; residual activity at 10 μM, %RA > 75% was considered as no inhibition, Table 1): 97% ± 2%
%RA at 10 µM ±SEM mAChE ([8]; residual activity at 10 µM, %RA >75% was considered no inhibition, Supplementary Table 1): 97% ±2%
half-life at 1 µM [9]: 0.928 h
locomotor activity of mice [10]: transient reduction in the locomotor activity
errors at the end of the acquisition phase (day 1) ([11]; scopolamine + 30 mg kg^−1): < 1 error
errors in the last trial block of day two ([11]; scopolamine + 30 mg kg^−1 on day 1): < 1 error
half-life at 1 µM [12]: > 2 h
possible metabolites identified with LC-HRMS [13]: N-debenzylated, demethylated, and a demethylated + glucoronide products
distance travelled to reach the platform ([14]; day 3, scopolamine + 30 mg kg^−1): 5.38 m
distance travelled to reach the platform ([14]; day 5, scopolamine + 30 mg kg^−1): 1.69 m
Distance in goal quadrant (% ±SEM) [14, 18]: 45.35 ±2.6 F[2,25] = 0.2035; NS %
Entries in zone NW (n ±SEM) [14, 18]: 7.3 ±0.7 F[2,25] = 14.59; p <0.0001 n
Latency time (s ±SEM) [14, 18]: 1.2 ±0.4 F[2,25] = 1.792; NS s
Number of NW zone crossings (n ±SEM) [14, 18]: 2.6 ±0.5 F[2,25] = 2.182; NS n
Time in target (NW) quadrant (s ±SEM) [14, 18]: 29.3 ±1.5 F[2,25] = 0.8737; NS s
Total distance covered (m ±SEM) [14, 18]: 11.5 ±0.6 F2,25] = 0.3439; NS m
mean speed of swimming ([14]; scopolamine + compound 2 30 mg kg^−1 (vehicle 0.17)): 0.16 m s^−1
Half-Life t1/2 (min) 2nd [15]: 51.7 min
Half-Life t1/2 (min) Mean [15]: 54 min
Half-Life t1/2 (min) 2rd ([15]; third replicate column): 55.6 min
Aβ(1–42) aggregation inhibition ([16]; 10 μM): did not inhibit Aβ(1–42) aggregation
inhibition at 10 µM ([16]; 10 μM compound, 1.5 μM Aβ1–42, read-out: Percent inhibition ±SEM (%) ThT): -4.89%
